Assay results as given in patent US9187486B2 (AMGEN INC., priority 2011, dated 2015).
Structures can show the parent of a compound that is named as a salt. Where two headings read alike, the source gives them in different places.

Key:
Pim-1 = Pim-1 (Homo sapiens (Human), UniProt P11309); assay: Pim enzyme assay (HTRF, phosphorylation of biotinylated-BAD (S112) peptide), Pim-1; format: biochemical
Source text: (§1) Full-length human cDNAs encoding Pim-1 (MGC ID 3913552) or Pim-2 (IMAGE ID 5092935) were purchased from Invitrogen, Carlsbad, Calif. These cDNAs were used as templates in PCR reactions to produce full-length DNA clones of the PIMs. Oligonucleotide PCR primers for Pim-1 were 5′-[…]-3′ and 5′-[…]-3′. Oligonucleotide PCR primers for Pim-2 were 5′-[…]-3′ and 5′-[…]-3′. PCR products were digested with BclI and EcoRI for Pim-1 and BamHI and EcoRI for Pim-2 and ligated into a modified baculovirus transfer vector (pFastBac 1) cleaved with BamHI and EcoRI. For bacterial expression, the same cleaved PCR products encoding Pim-1 or Pim-2 were ligated into a modified E. coli expression vector pET28(a) cleaved with BamHI and EcoRI. Amino-terminal hexahistidine tags followed by a thrombin cleavage site were previously added to the vectors using standard methods of molecular biology. Recombinant baculoviruses expressing Pim-1 or Pim-2 were made using standard methods (Fastbac manual, Invitrogen, Carlsbad, Calif.). Infection of Sf9 cells was done at an m.o.i. of greater than 5 for 24-48 h. Cells were harvested by centrifugation and frozen at −80 C. For E. coli expression, cells carrying pET28-His6-Th-Pim-1 or pET28-His6-Th-Pim-2 were picked from a single colony and grown o/n in LB media. The o/n culture was used to inoculate a 2 liter flask with 500 mL media. This was grown o/n and used to inoculate 15-20 liters of Terrific Broth in a New Brunswick Scientific fermentor. The E. coli were grown at 37° C. to and OD600>1.6. The temperature was dropped to 18° C. and o/n expression was induced with 0.5 mM IPTG. Cells were harvested by centrifugation and frozen at −80° C.
(§2) The frozen cell pellets were thawed by stirring in chilled lysis buffer (0.05 M HEPES, pH 8.0, 0.25 M NaCl, 0.01 M 2-mercaptoethanol, 10% (w/v) glycerol, 0.5% (v/v) protease inhibitor cocktail (Sigma P-8340) at a ratio of 1 L/200 g cells until homogeneous. The thawed suspension was applied to a microfluidizer at 10,000 PSI to disrupt the cells and the whole lysates were clarified by centrifugation at 50,000×g for 90 min, 4° C. Imidazole was added to the clarified lysate to a final concentration of 2.5 mM and the lysate was mixed with 10 mL of Talon resin (Clontech) and the slurry rocked gently overnight at 4° C. The slurry was centrifuged at 1,000×g for 5 min, the supernatant decanted, and the resin suspended in 40 mL of lysis wash buffer (lysis buffer at 0.75 M NaCl). This step was repeated 3× and the resin was transferred to a 2.5 cm glass column. Ten column volumes of wash buffer (0.05 M HEPES, pH 8.0, 0.1 M NaCl, 0.01 M 2-mercaptoethanol, 10% (w/v) glycerol) were applied to the resin followed by 10 column volumes of elution buffer (0.05 M HEPES, pH 8.0, 0.25 M NaCl, 0.01 M 2-mercaptoethanol, 10% (w/v) glycerol, 0.1 M imidazole). Fractions were analyzed by SDS-PAGE and those containing the protein of interest were pooled and concentrated. The concentrated protein was applied to an Amersham Superdex 75 (XK 26/60) column equilibrated in 0.025 M Tris-HCl, pH 7.5, 0.1 M NaCl, 0.01 M 2-mercaptoethanol, 10% (w/v) glycerol. […] Fractions containing the monomeric protein of interest were pooled, concentrated to ˜2 mg/mL, and stored at −80° C.
(§3) The phosphorylation of biotinylated-BAD (S112) peptide by full length recombinant Pim-1, Pim-2, or Pim-3 protein was detected with streptavidin:Allophycocyanin (APC) conjugate and a europium (Eu) labeled antibody directed against phosphorylated-BAD (S112). Excitation of Eu by a high energy laser light (337 nm) leads to a transfer of energy to the APC molecule, and results in an emission at 665 nm. The fluorescence is directly proportional to the amount of phosphorylated BAD peptide present in the reaction.

Pim-2 = Pim-2 (Homo sapiens (Human), UniProt Q9P1W9); assay: Pim enzyme assay (HTRF, phosphorylation of biotinylated-BAD (S112) peptide), Pim-2; format: biochemical
Pim-2, sequence (Q9P1W9 whole entry): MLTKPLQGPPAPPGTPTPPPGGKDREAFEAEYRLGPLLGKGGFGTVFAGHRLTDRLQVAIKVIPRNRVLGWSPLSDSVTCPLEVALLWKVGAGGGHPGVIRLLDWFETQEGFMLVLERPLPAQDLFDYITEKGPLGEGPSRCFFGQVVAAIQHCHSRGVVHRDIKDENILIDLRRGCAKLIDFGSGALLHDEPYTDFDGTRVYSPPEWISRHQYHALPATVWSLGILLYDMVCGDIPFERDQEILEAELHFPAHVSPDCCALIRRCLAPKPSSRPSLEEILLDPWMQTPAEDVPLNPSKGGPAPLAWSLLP
Source text: as §1, §2, §3

[1] = full length recombinant Pim-1, biotinylated-BAD (S112) peptide, HTRF, 96-well, read-out: Pim-1 IC50 IP
[2] = full length recombinant Pim-1, biotinylated-BAD (S112) peptide, HTRF, read-out: Pim_1_IC50
[3] = full length recombinant Pim-2, biotinylated-BAD (S112) peptide, HTRF, read-out: Pim2_IC50
[4] = full length recombinant Pim-2, biotinylated-BAD (S112) peptide, HTRF, 96-well, read-out: Pim-2 IC50 IP

Pim-1, sequence (P11309 whole entry): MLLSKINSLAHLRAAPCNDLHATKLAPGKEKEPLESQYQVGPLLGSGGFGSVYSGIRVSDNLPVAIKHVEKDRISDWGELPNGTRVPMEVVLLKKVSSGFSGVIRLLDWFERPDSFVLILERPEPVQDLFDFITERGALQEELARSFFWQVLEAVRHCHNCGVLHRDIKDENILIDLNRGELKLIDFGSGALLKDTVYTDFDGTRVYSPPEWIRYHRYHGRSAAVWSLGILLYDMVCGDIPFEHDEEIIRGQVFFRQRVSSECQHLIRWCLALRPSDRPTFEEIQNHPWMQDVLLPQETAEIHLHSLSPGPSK

SMILES	IC50 (Pim-1; [1]) [nM]	IC50 (Pim-1; [2]) [nM]	IC50 (Pim-2; [3]) [nM]	further results
O[C@@H]1CCN(c2ccncc2Nc2ncc3ccc(-c4c(F)cccc4F)nn23)C[C@H]1O (single isomer, unassigned) [Example 34, 1-(3-((2-(2,6-difluorophenyl)imidazo[1,5-b]pyridazin-7-yl)amino)-4-pyridinyl)-3,4-trans-piperidinediol]	66.9			
N[C@@H]1C=C(c2ccncc2Nc2ncc3ccc(-c4c(F)cccc4F)nn23)CCC1 (single isomer, unassigned) [Example 84, N-(4-(3-aminocyclohex-1-en-1-yl)pyridin-3-yl)-2-(2,6-difluorophenyl)imidazo[1,5-b]pyridazin-7-amine tris(2,2,2-trifluoroacetate)]	30.5			
c1cc(N2CCNCC2)c(Nc2ncc3ccc(-c4nccs4)nn23)cn1 [Example 3, N-(4-(1-piperazinyl)-3-pyridinyl)-2-(1,3-thiazol-2-yl)imidazo[1,5-b]pyridazin-7-amine]		54	154	
Clc1ccccc1-c1ccc2cnc(Nc3cnccc3N3CCNCC3)n2n1 [Example 5, 2-(2-chlorophenyl)-N-(4-(1-piperazinyl)-3-pyridinyl)imidazo[1,5-b]pyridazin-7-amine]		107	640	
Clc1ccccc1-c1ccc2cnc(Nc3cnccc3O[C@@H]3CCCNC3)n2n1 [Example 10, 2-(2-chlorophenyl)-N-(4-((3R)-3-piperidinyloxy)-3-pyridinyl)imidazo[1,5-b]pyridazin-7-amine bis(2,2,2-trifluoroacetate)]		409	> 1000	
N[C@H]1CCN(c2ccncc2Nc2ncc3ccc(-c4c(F)cccc4F)nn23)C1 [Example 13, N-(4-((3S)-3-amino-1-pyrrolidinyl)-3-pyridinyl)-2-(2,6-difluorophenyl)imidazo[1,5-b]pyridazin-7-amine bis(2,2,2-trifluoroacetate)]		568	> 1000	
N[C@H]1CCCN(c2ncncc2Nc2ncc3ccc(-c4ccccc4F)nn23)C1 [Example 14, (S)-N-(4-(3-aminopiperidin-1-yl)pyrimidin-5-yl)-2-(2-fluorophenyl)imidazo[1,5-b]pyridazin-7-amine]		35	160	
O[C@@H]1CCCN(c2ccncc2Nc2ncc3ccc(-c4ccccc4Cl)nn23)C1 [Example 17, (3R)-1-(3-((2-(2-chlorophenyl)imidazo[1,5-b]pyridazin-7-yl)amino)-4-pyridinyl)-3-piperidinol]		192	> 1000	
O[C@@H]1CCCN(c2ccncc2Nc2ncc3ccc(-c4nccs4)nn23)C1 [Example 18, (3R)-1-(3-((2-(1,3-thiazol-2-yl)imidazo[1,5-b]pyridazin-7-yl)amino)-4-pyridinyl)-3-piperidinol]		99	> 1000	
O[C@H]1CCCN(c2ccncc2Nc2ncc3ccc(-c4c(F)cccc4F)nn23)C1 [Example 19, (3S)-1-(3-((2-(2,6-difluorophenyl)imidazo[1,5-b]pyridazin-7-yl)amino)-4-pyridinyl)-3-piperidinol]		3	30	
N[C@H]1CCCN(c2ccncc2Nc2ncc3ccc(Cl)nn23)C1 [Example 24, N-(4-((3S)-3-amino-1-piperidinyl)-3-pyridinyl)-2-chloroimidazo[1,5-b]pyridazin-7-amine]		25	99	
CN(C)c1ccncc1Nc1ncc2ccc(-c3c(F)cccc3F)nn12 [Example 26, N^3-(2-(2,6-difluorophenyl)imidazo[1,5-b]pyridazin-7-yl)-N^4,N^4-dimethyl-3,4-pyridinediamine]		534	> 1000	
O=c1ccc(-c2ccncc2Nc2ncc3ccc(-c4c(F)cccc4F)nn23)c[nH]1 [Example 28, 3′-((2-(2,6-difluorophenyl)imidazo[1,5-b]pyridazin-7-yl)amino)-3,4′-bipyridin-6(1 H)-one]		38	281	
Nc1cncc(-c2ccncc2Nc2ncc3ccc(-c4c(F)cccc4F)nn23)c1 [Example 29, N3′-(2-(2,6-difluorophenyl)imidazo[1,5-b]pyridazin-7-yl)-3,4′-bipyridine-3′,5-diamine]		206	> 1000	
N[C@H]1CCCN(c2sncc2Nc2ncc3ccc(-c4c(F)cccc4F)nn23)C1 [Example 31, N-(5-((3S)-3-amino-1-piperidinyl)-4-isothiazolyl)-2-(2,6-difluorophenyl)imidazo[1,5-b]pyridazin-7-amine dihydrochloride]			136	IC50 (Pim-1; read-out: Pim_1_IC50): 50 nM
N[C@H]1CCCN(c2ccncc2Nc2ncc3ccc(-c4ncccc4F)nn23)C1 [Example 40, N-(4-((3S)-3-amino-1-piperidinyl)-3-pyridinyl)-2-(3-fluoro-2-pyridinyl)imidazo [1,5-b]pyridazin-7-amine]				IC50 (Pim-2; [4]): 1.1 nM
C[C@H]1CN(c2ccncc2Nc2ncc3ccc(-c4c(F)cccc4F)nn23)CCN1 [Example 58, (S)-2-(2,6-difluorophenyl)-N-(4-(3-methylpiperazin-1-yl)pyridin-3-yl)imidazo[1,5-b]pyridazin-7-amine bis(2,2,2-trifluoroacetate)]	11.8			IC50 (Pim-2; [4]): 65.9 nM
CN[C@H]1CCCN(c2ccncc2Nc2ncc3ccc(-c4c(F)cccc4F)nn23)C1 [Example 59, (S)-2-(2,6-difluorophenyl)-N-(4-(3-(methylamino)piperidin-1-yl)pyridin-3-yl)imidazo[1,5-b]pyridazin-7-amine]	2			IC50 (Pim-2; [4]): 31 nM
N[C@H]1CCCN(c2ccncc2Nc2nnc3ccc(-c4c(F)cccc4F)nn23)C1 [Example 67, (S)-N-(4-(3-aminopiperidin-1-yl)pyridin-3-yl)-6-(2,6-difluorophenyl)-[1,2,4]triazolo[4,3-b]pyridazin-3-amine 2,2,2-trifluoroacetate]	4.5			IC50 (Pim-2; [4]): 35.4 nM
Fc1cccc(F)c1-c1ccc2cnc(Nc3cnccc3N3CCCCC3)n2n1 [Example 70, 2-(2,6-difluorophenyl)-N-(4-(piperidin-1-yl)pyridin-3-yl)imidazo[1,5-b]pyridazin-7-amine bis(2,2,2-trifluoroacetate)]	29.6			
Fc1cccnc1-c1ccc2cnc(Nc3cnccc3N3CCCCC3)n2n1 [Example 71, 2-(3-Fluoropyridin-2-yl)-N-(4-(piperidin-1-yl)pyridin-3-yl)imidazo[1,5-b]pyridazin-7-amine bis(2,2,2-trifluoroacetate)]	38.5			
CC(C)CN(C)c1ccncc1Nc1ncc2ccc(-c3c(F)cccc3F)nn12 [Example 81, N3-(2-(2,6-Difluorophenyl)imidazo[1,5-b]pyridazin-7-yl)-N4-isobutyl-N4-methylpyridine-3,4-diamine]	33.8			
Cc1oncc1-c1ccncc1Nc1ncc2ccc(-c3c(F)cccc3F)nn12 [Example 102, 2-(2,6-Difluorophenyl)-N-(4-(5-methylisoxazol-4-yl)pyridin-3-yl)imidazo[1,5-b]pyridazin-7-amine bis(2,2,2-trifluoroacetate)]				IC50 (Pim-2; read-out: Pim-2 IC50 IP): > 1000 nM
